Assay: xn = mol fraction of the nth substance listed
Conditions: Liquid, Vibrating tube method

CC(C)OC(C)C [diisopropyl ether] + CCC(C)O
mass density [kg/m3]
Conditions	x2 = 0	x2 = 0.2036	x2 = 0.3227	x2 = 0.4464	x2 = 0.4973	x2 = 0.6595	x2 = 0.8482
333.15 K, 45000 kPa	–	–	–	761.8	765.4	777.4	793.2
333.15 K, 50000 kPa	739.1	750.4	757.8	765.7	769.2	781.1	796.6
333.15 K, 55000 kPa	743.1	754.3	761.6	769.4	772.9	784.5	799.8
333.15 K, 60000 kPa	747.1	758	765.2	772.9	776.4	787.9	803
333.15 K, 65000 kPa	750.9	761.7	768.8	776.4	779.8	791.2	806
333.15 K, 70000 kPa	754.4	765.1	772.1	779.7	783.1	794.3	808.9
333.15 K, 80000 kPa	761.3	771.8	778.6	785.9	789.2	800.2	814.6
333.15 K, 90000 kPa	767.7	778	784.7	791.9	795.1	805.9	820
333.15 K, 100000 kPa	773.7	783.7	790.3	797.4	800.5	811.1	824.9
333.15 K, 110000 kPa	779.4	789.3	795.8	802.7	805.9	816.1	829.8
333.15 K, 120000 kPa	784.7	794.5	800.9	807.7	810.8	820.9	834.3
333.15 K, 130000 kPa	789.9	799.5	805.9	812.5	815.6	825.6	838.8
333.15 K, 140000 kPa	794.8	804.2	810.4	817	820	830	842.9
353.19 K, 100 kPa	–	672.3	682	692.5	–	712.8	732.9
353.19 K, 1000 kPa	659.5	674.1	683.6	694.1	698.7	714.2	734.2
353.19 K, 5000 kPa	667.6	681.5	690.7	700.7	705.1	720	739.3
353.19 K, 10000 kPa	676.5	689.7	698.5	708	712.3	726.7	745.2
353.19 K, 15000 kPa	684.4	697.1	705.5	714.7	718.9	732.8	750.7
353.19 K, 20000 kPa	691.5	703.8	711.9	720.9	724.9	738.3	755.8
353.19 K, 25000 kPa	698	709.9	717.9	726.6	730.4	743.5	760.6
353.19 K, 30000 kPa	704	715.7	723.4	731.9	735.7	748.5	765.1
353.19 K, 35000 kPa	709.7	721	728.6	736.8	740.6	753.1	769.3
353.19 K, 40000 kPa	714.8	725.9	733.3	741.5	745.1	757.3	773.4
353.19 K, 45000 kPa	719.7	730.8	738	745.9	749.5	761.5	777.3
353.19 K, 50000 kPa	724.6	735.3	742.4	750.3	753.8	765.6	781
353.19 K, 55000 kPa	728.9	739.4	746.5	754.3	757.7	769.4	784.5
353.19 K, 60000 kPa	733.2	743.6	750.5	758.1	761.6	773	788
353.19 K, 65000 kPa	737.2	747.6	754.3	761.9	765.2	776.6	791.3
353.19 K, 70000 kPa	741.1	751.3	758	765.5	768.8	780	794.6
353.19 K, 80000 kPa	748.4	758.3	765	772.2	775.4	786.3	800.5
353.19 K, 90000 kPa	755.4	765.1	771.5	778.6	781.8	792.4	806.4
353.19 K, 100000 kPa	761.6	771.2	777.6	784.5	787.6	798	811.8
353.19 K, 110000 kPa	767.8	777.1	783.4	790.2	793.3	803.5	816.9
353.19 K, 120000 kPa	773.4	782.6	788.8	795.5	798.5	808.6	821.8
353.19 K, 130000 kPa	778.8	787.8	793.9	800.6	803.5	813.4	826.5
353.19 K, 140000 kPa	784	792.9	798.9	805.4	808.4	818.2	831
373.24 K, 1000 kPa	635.6	649.8	659.4	670	674.8	690.8	711.2
373.24 K, 5000 kPa	645.5	659	668	678.1	682.5	697.8	717.4
373.24 K, 10000 kPa	656.1	668.7	677.2	686.9	691.1	705.6	724.3
373.24 K, 15000 kPa	665.3	677.4	685.5	694.7	698.8	712.7	730.7
373.24 K, 20000 kPa	673.5	685.1	693	701.7	705.7	719.1	736.5
373.24 K, 25000 kPa	680.8	692.1	699.7	708.2	712	725.1	741.9
373.24 K, 30000 kPa	687.6	698.6	706	714.3	718	730.6	747.1
373.24 K, 35000 kPa	693.8	704.4	711.7	719.8	723.4	735.7	751.9
373.24 K, 40000 kPa	699.6	710	717.1	725	728.5	740.7	756.3
373.24 K, 45000 kPa	705	715.3	722.2	730	733.5	745.3	760.7
373.24 K, 50000 kPa	710.1	720.1	726.9	734.6	738	749.6	764.7
373.24 K, 55000 kPa	714.9	724.9	731.5	739	742.4	753.8	768.7
373.24 K, 60000 kPa	719.5	729.2	735.8	743.2	746.5	757.8	772.4
373.24 K, 65000 kPa	723.9	733.4	740	747.3	750.6	761.6	776
373.24 K, 70000 kPa	728.1	737.4	743.9	751.1	754.3	765.2	779.5
373.24 K, 80000 kPa	735.9	745.2	751.5	758.4	761.6	772.3	786.1
373.24 K, 90000 kPa	743.2	752.3	758.4	765.2	768.4	778.8	792.3
373.24 K, 100000 kPa	750	758.8	764.9	771.5	774.6	784.8	798.2
373.24 K, 110000 kPa	756.3	765.1	771	777.6	780.6	790.6	803.6
373.24 K, 120000 kPa	762.3	770.9	776.8	783.2	786.1	796	808.8
373.24 K, 130000 kPa	768	776.5	782.3	788.7	791.5	801.3	813.9
373.24 K, 140000 kPa	773.3	781.8	787.4	793.7	796.6	806.1	818.6
393.28 K, 1000 kPa	609.5	623.6	633.2	644	648.8	665	686.4
393.28 K, 5000 kPa	622.1	635	643.9	654	658.4	673.7	693.9
393.28 K, 10000 kPa	635	647	655.3	664.6	668.8	683.2	702.2
393.28 K, 15000 kPa	645.8	657.1	665	673.9	677.9	691.5	709.7
393.28 K, 20000 kPa	655.2	666	673.6	682	685.8	698.9	716.3
393.28 K, 25000 kPa	663.5	674	681.2	689.5	693.1	705.7	722.6
393.28 K, 30000 kPa	671.1	681.1	688.2	696.2	699.8	712	728.4
393.28 K, 35000 kPa	677.9	687.8	694.7	702.5	705.9	717.8	733.8
393.28 K, 40000 kPa	684.3	694	700.7	708.3	711.6	723.2	738.8
393.28 K, 45000 kPa	690.2	699.6	706.2	713.7	717	728.3	743.6
393.28 K, 50000 kPa	695.8	705.1	711.5	718.8	722	733.1	748.1
393.28 K, 55000 kPa	701.1	710.3	716.6	723.7	726.9	737.8	752.5
393.28 K, 60000 kPa	705.9	714.9	721.1	728.2	731.3	742.1	756.5
393.28 K, 65000 kPa	710.6	719.4	725.7	732.5	735.6	746.3	760.4
393.28 K, 70000 kPa	715.2	723.9	729.9	736.8	739.9	750.3	764.3
393.28 K, 80000 kPa	723.5	732	738	744.7	747.6	757.7	771.4
393.28 K, 90000 kPa	731.3	739.7	745.5	752	754.9	764.8	778.1
393.28 K, 100000 kPa	738.4	746.7	752.4	758.7	761.6	771.3	784.3
393.28 K, 110000 kPa	745.3	753.3	758.9	765.2	768	777.5	790.3
393.28 K, 120000 kPa	751.4	759.4	764.9	771.1	773.8	783.2	795.8
393.28 K, 130000 kPa	757.4	765.3	770.8	776.8	779.6	788.8	801.1
393.28 K, 140000 kPa	763.1	770.8	776.3	782.3	784.9	794.1	806.2
